Data as given in the OPERA property sets (Mansouri et al. 2018).

| SMILES | logP |
| --- | --- |
| COc1ccc(C=NN(c2ccccc2)P(=O)(N2CC2)N2CC2)cc1 | 0.57 |
| CC(C)=NNP(=O)(N1CC1)N1CC1 | 0.45 |
| O=P(N1CC1)(N1CC1)N(N=Cc1ccccc1)c1ccccc1 | 0.56 |
| CN(N=Cc1ccccc1)P(=O)(N1CC1)N1CC1 | 0.51 |
| O=P(NN=Cc1ccc(Cl)cc1)(N1CC1)N1CC1 | 0.13 |
| CN(N=Cc1ccc(F)cc1)P(=O)(N1CC1)N1CC1 | 0.48 |
| CC(C)=NN(C)P(=O)(N1CC1)N1CC1 | 0.51 |
| CN(N=Cc1ccc(Br)cc1)P(=O)(N1CC1)N1CC1 | 0.31 |
| COc1ccc(C=NNP(=O)(N2CC2)N2CC2)cc1 | 0.42 |
| CC(C)=NN(c1ccccc1)P(=O)(N1CC1)N1CC1 | 0.57 |
| O=P(NN=Cc1ccc(F)cc1)(N1CC1)N1CC1 | 0.45 |
| O=[N+]([O-])c1ccc(N(N=Cc2ccccc2)P(=O)(N2CC2)N2CC2)cc1 | 0.57 |
| O=P(N1CC1)(N1CC1)N(N=Cc1ccc(F)cc1)c1ccccc1 | 0.56 |
| O=P(N1CC1)(N1CC1)N(N=Cc1ccc(Cl)cc1)c1ccccc1 | 0.35 |
| CN(N=Cc1ccc([N+](=O)[O-])cc1)P(=O)(N1CC1)N1CC1 | 0.51 |
| O=P(NN=Cc1ccccc1)(N1CC1)N1CC1 | 0.48 |
| COc1ccc(C=NN(C)P(=O)(N2CC2)N2CC2)cc1 | 0.47 |
| O=[N+]([O-])c1ccc(C=NNP(=O)(N2CC2)N2CC2)cc1 | 0.45 |
| O=[N+]([O-])c1ccc(C=NN(c2ccccc2)P(=O)(N2CC2)N2CC2)cc1 | 0.57 |
